Literature values in patent US20060074057A1, “Use of chenodeoxycholic acid for reducing adipose tissue” (priority 2004, published 2006).

Molecular target: 11-beta-hydroxysteroid dehydrogenase type 1 (11BHSD1) (Homo sapiens, UniProt P28845)
Details: "has been shown"; no data or method given

Sequence of 11-beta-hydroxysteroid dehydrogenase type 1 (11BHSD1) (P28845 whole entry): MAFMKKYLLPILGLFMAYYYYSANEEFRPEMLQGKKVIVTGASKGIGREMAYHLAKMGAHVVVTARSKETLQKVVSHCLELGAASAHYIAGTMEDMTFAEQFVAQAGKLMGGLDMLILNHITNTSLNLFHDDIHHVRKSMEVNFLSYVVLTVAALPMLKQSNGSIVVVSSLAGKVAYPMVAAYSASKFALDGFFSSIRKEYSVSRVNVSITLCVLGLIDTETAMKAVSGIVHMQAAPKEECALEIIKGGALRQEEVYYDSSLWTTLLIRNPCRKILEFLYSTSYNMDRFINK

inhibition of 11BHSD1 (result in words): selective inhibitor
SMILES: CC(CCC(=O)O)C1CCC2C3C(CC[C@]12C)[C@@]1(C)CC[C@@H](O)C[C@H]1C[C@H]3O (stereo partly drawn) [Chenodeoxycholic acid, 3-alpha,7-alpha-dihydroxy-5-beta-cholanic acid]
